Measurements reported in ChEMBL document CHEMBL5113506, “Discovery of novel human lactate dehydrogenase inhibitors: Structure-based virtual screening studies and biological assessment” (Eur J Med Chem, 2022).
Calls of active or inactive are those of the source. The calls are words filed in the database; no cut-off is given here.

Legend:
[1] = target: T1, L-lactate dehydrogenase A chain (Homo sapiens, UniProt P00338); assay: Inhibition of LDHA in human liver using pyruvate as substrate incubated for 3 mins by fluorescence assay; format: tissue-based
[2] = Antiproliferation activity against human Med1 assessed as reduction in cell viability after 24 hrs by Trypan blue exclusion assay; format: functional, cell-based; details: Medulloblastoma cell
Medulloblastoma cell [3] = assay: Antiproliferation activity against human Med1 assessed as reduction in cell viability at 1 mM after 24 hrs by Trypan blue exclusion assay; format: functional, cell-based
Medulloblastoma cell [4] = assay: Antiproliferation activity against human Med1 assessed as reduction in cell viability at […] after 24 hrs by Trypan blue exclusion assay; format: functional, cell-based
[5] = target: L-lactate dehydrogenase B chain (Mus musculus, UniProt P16125); assay: Inhibition of mouse LDHB using sodium pyruvate as substrate
[6] = target: T1, L-lactate dehydrogenase A chain; assay: Inhibition of LDHA in human Med1 cells using pyruvate as substrate incubated 10 mins by spectrophotometric analysis; format: cell-based, Medulloblastoma cell
HCT-116 [7] = assay: Induction of autophagy in human HCT-116 cells assessed as increase in LC3B-I lipidation protein expression level at 80 to 320 uM after 48 hrs by Western blot analysis; format: functional, cell-based; details: dose 80-320 µM
HCT-116 [8] = assay: Antiproliferation activity against human HCT-116 cells assessed as reduction in cell viability after 24 hrs in presence of rotenone by Trypan blue exclusion assay; format: functional, cell-based
HCT-116 [9] = assay: Induction of apoptosis in human HCT-116 cells assessed as increase in cleaved PARP protein expression level at 80 to 320 uM after 48 hrs by Western blot analysis; format: functional, cell-based; details: dose 80-320 µM
HCT-116 [10] = assay: Induction of apoptosis in human HCT-116 cells assessed as increase in cleaved PARP protein expression level after 48 hrs in presence of rotenone by Western blot analysis; format: functional, cell-based
PANC-1 = assay: Antiproliferation activity against human PANC-1 cells assessed as reduction in cell viability after 24 hrs by Trypan blue exclusion assay; format: functional, cell-based
[11] = target: T1, L-lactate dehydrogenase A chain; assay: Inhibition of LDHA in human Med1 cells assessed as reduction in lactate production by measuring ECAR using pyruvate as substrate incubated 6 hrs by seahorse extracellular flux analysis; format: cell-based; details: Medulloblastoma cell
HCT-116 [12] = assay: Antiproliferation activity against human HCT-116 cells assessed as reduction in cell viability after 24 hrs by Trypan blue exclusion assay; format: functional, cell-based
SW-620 = assay: Antiproliferation activity against human SW-620 cells assessed as reduction in cell viability after 24 hrs by Trypan blue exclusion assay; format: functional, cell-based
HCT-116 [13] = assay: Induction of […] in human HCT-116 cells assessed as increase in LC3B-I lipidation protein expression level after 48 hrs in presence of rotenone by Western blot analysis; format: functional, cell-based
Medulloblastoma cell [14] = assay: Antiproliferation activity against human Med1 assessed as reduction in cell viability at 100 uM after 24 hrs by Trypan blue exclusion assay; format: functional, cell-based
A549 = assay: Antiproliferation activity against human A549 cells assessed as reduction in cell viability after 24 hrs by Trypan blue exclusion assay; format: functional, cell-based

Sequence of L-lactate dehydrogenase B chain (P16125 whole entry): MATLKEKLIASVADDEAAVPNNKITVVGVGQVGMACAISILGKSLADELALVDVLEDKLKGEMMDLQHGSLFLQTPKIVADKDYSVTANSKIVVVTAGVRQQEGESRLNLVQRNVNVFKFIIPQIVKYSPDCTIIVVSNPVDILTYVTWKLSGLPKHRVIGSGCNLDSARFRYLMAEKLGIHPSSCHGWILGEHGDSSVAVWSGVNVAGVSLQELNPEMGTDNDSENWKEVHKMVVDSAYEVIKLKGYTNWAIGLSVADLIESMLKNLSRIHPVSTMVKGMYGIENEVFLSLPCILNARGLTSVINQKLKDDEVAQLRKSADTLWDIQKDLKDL

SMILES | IC50 [2] [nM] | Activity (Medulloblastoma cell [3]) | Activity (Medulloblastoma cell [4]) | further results
O=c1cc2c(=O)oc3cc(O)c(O)oc3c2c(O)c1O | – | – | – | Ki [1]: 5.46 µM
NC(=O)C(=O)O [SODIUM OXAMATE] | 15900 | – | – | –
CSc1sc(C(=O)O)cc1-c1nc(-c2ccc(C)cc2)cs1 | 964 | Active | Active | –
Cc1cc(C(=O)N(CCc2cccs2)C2CCOCC2)no1 | 1160 | Active | Active | –
Cc1ccc(-c2c(C)c(C(=O)O)nn2-c2ccc(Cl)c(Cl)c2)cc1C | 1140 | Active | Active | –
Cc1cc2c(C(C)C)c(O)c(O)c(C=O)c2c(O)c1-c1c(C)cc2c(C(C)C)c(O)c(O)c(C=O)c2c1O [GOSSYPOL] | – | – | – | Ki [5]: 1400 nM
Cn1nc(C2CCN(C(=O)NCc3ccccc3)CC2)n(-c2ccccc2)c1=O | 1510 | Active | Active | –
CSc1cccc(-n2c(=O)n(Cc3ccc(C(=O)O)cc3)c(=O)c3[nH]cnc32)c1 | 8310 | – | Active | –
O=C(NCc1nn(C2CCCC2)c(=O)c2ccccc12)Nc1ccccc1F | 8460 | Active | Active | –
O=c1cc2c(nn1CC1CCN(C3=NS(=O)(=O)c4ccccc43)CC1)CCC2 | 81.8 | Active | Active | IC50 [6]: 12 nM; Activity (HCT-116 [7]): Active; Activity (HCT-116 [8]): Active; Activity (HCT-116 [9]): Active; Activity (HCT-116 [10]): Active; Activity (PANC-1): Active; inhibition [11]: Active; Activity (HCT-116 [12]): Active; Activity (SW-620): Active; Activity (HCT-116 [13]): Active; Activity (Medulloblastoma cell [14]): Active; Activity (A549): Active
O=C(O)c1nnn(-c2ccc(F)cc2F)c1-c1ccccc1 | 1300 | Active | Active | –
Cc1nn(-c2ncc(NC(=O)C3(c4ccccc4)CCOCC3)cn2)c(C)c1C | 29.8 | Active | Active | Activity (Medulloblastoma cell [14]): Active
